Results on one molecule are retold here after patent US10278395B2, “Functionalized environmentally benign nanoparticles” (North Carolina State University, priority 2013, dated 2019).

Structures are written as SMILES.

Experiment [1] concerns E. coli BL21 (DE3). The experiment can be described thus: Quantitative antimicrobial test on E. coli (wet method, CFU reduction efficiency). The format is cell-based, Escherichia coli. The settings on record: for CFU reduction efficiency: 40 ppm. As for the experimental part:
We performed quantitative antimicrobial tests on Gram-negative E. coli BL21 (DE3), a common human pathogen, and qualitative tests on Gram-negative P. aeruginosa, a human pathogen not susceptible to antimicrobial amines such as BPEI and […]. Therefore, any antimicrobial activity in the P. aeruginosa tests will predominantly stem from silver. The activity of each active agent was determined by comparing the number of colony forming units (CFU) of a reference plate with the CFU of a test plate as depicted in FIG. 20. The reduction of CFU on a test plate with antimicrobial agent is time dependent and concentration dependent. […] We quantified by the antimicrobial reduction efficiency “E” with the following equation The schematic in FIG. 21 describes the wet method procedure that was followed for antimicrobial tests on both E. coli and P. aeruginosa. First, 200 μl of each active agent was placed into separate low retention centrifuge tubes. 100 μl of PBS buffer was added to each tube to baseline the ionic strength, and to adjust the pH value to 7. […] The samples were continuously vortexed. After the bacteria were exposed to the active agent for 1 minute, the survival rate of the bacteria was determined by plating 100 μl of each sample evenly distributed on Luria-Bertani agar plates. The procedure was repeated after 30 minutes of exposure time. After the plating procedure, the petri dishes were sealed and incubated upside-down for 48 h at 37° C.

Experiment [2] has as its system Pseudomonas aeruginosa. The experiment in a line: Qualitative antimicrobial test on P. aeruginosa (wet method, growth on plates). The format is cell-based. The settings on record: for antimicrobial effect (in words): 30 minutes incubation time. As for the experimental part:
We performed quantitative antimicrobial tests on Gram-negative E. coli BL21 (DE3), a common human pathogen, and qualitative tests on Gram-negative P. aeruginosa, a human pathogen not susceptible to antimicrobial amines such as BPEI and […]. Therefore, any antimicrobial activity in the P. aeruginosa tests will predominantly stem from silver. The activity of each active agent was determined by comparing the number of colony forming units (CFU) of a reference plate with the CFU of a test plate as depicted in FIG. 20. The reduction of CFU on a test plate with antimicrobial agent is time dependent and concentration dependent. The schematic in FIG. 21 describes the wet method procedure that was followed for antimicrobial tests on both E. coli and P. aeruginosa. First, 200 μl of each active agent was placed into separate low retention centrifuge tubes. 100 μl of PBS buffer was added to each tube to baseline the ionic strength, and to adjust the pH value to 7. […] The samples were continuously vortexed. After the bacteria were exposed to the active agent for 1 minute, the survival rate of the bacteria was determined by plating 100 μl of each sample evenly distributed on Luria-Bertani agar plates. The procedure was repeated after 30 minutes of exposure time. After the plating procedure, the petri dishes were sealed and incubated upside-down for 48 h at 37° C.

Consider `O=[N+]([O-])[O-].[Ag+]` [AgNO3, silver nitrate], for which the “Ag concentration at which antimicrobial effects were exhibited” value in experiment [1] turned out to be 40 ppm Ag. In addition, the figures for the CFU reduction efficiency in experiment [1] (1 min vortex time) and in experiment [1] (30 min vortex time) were 53.33% and 96.19%, respectively. The Pseudomonas aeruginosa growth result in experiment [2] (1 min vortex time or contact time, 10 ppm) was “Yes”; in experiment [2] (1 min vortex time or contact time, 20 ppm), “Yes”; in experiment [2] (30 min vortex time or contact time, 10 ppm), “Yes”; in experiment [2] (30 min vortex time or contact time, 20 ppm), “Yes”. The “antimicrobial effect (in words)” value in experiment [2] (20 ppm Ag) and in experiment [2] (concentration not given) was “no complete antimicrobial effect” throughout.
